The values below come from patent US20190127314A1, “HOMOVANILLIC ACID ESTER FOR REDUCING OR INHIBITING FATTY ACID ABSORPTION IN THE SMALL INTESTINE” (SYMRISE AG, priority 2016, published 2019).

The experiment has as its system differentiated Caco-2-cells. Nature of the experiment: Intestinal fatty acid resorption, QBT Fatty Acid Uptake Kit (BODIPY-dodecanoic acid). Type of experiment: cell-based. The note with it: Homo sapiens, fatty acid resorption AUC as percent of the vehicle treated control, 30 min preincubation, fluorescence measured over 1 h; for activity at 1 µM: 1 μM substance; for activity at 100 µM: 100 μM substance. From the text:
The ability of modulating the fatty acid resorption/absorption (as described in the scope of the present invention) of a substance or substance mixture can be determined or, respectively, evaluated e.g. according to the method described herein, by using Caco-2-cells (s. also the example section of the present text). Preferably, in the scope of the present text it is to be assumed that substances reducing or, respectively, inhibiting the fatty acid resorption (preferably when performing the method described herein, s. example section) are also suitable for the uses or, respectively, applications according to the invention and described herein. Preferably, the human colon cell line Caco-2 (ATCC-number HTB-37) is used, after differentiation to a phenotype related to entereocytes, as cell model for the resorption of free fatty acids into the small intestine. (Caco-2-cells are preferably cultivated at 37° C. and 5% CO2 content with Dulbecco's Modified Eagles Medium (DMEM) with 10% FBS, 2% L-Glutamine and 1% Penicillin/Streptomycin. The differentiation to enterocytes is preferably performed by an 18-days cultivation of the cells after reaching confluence.)
The resorption of free fatty acids in differentiated Caco-2-cells was analysed with the QBT Fatty Acid Uptake Kit (Molecular Devices Corporation, Germany), which uses the fluorescent fatty acid analogue BODIPY-dodecanoic acid. For preparing the assay, the differentiated Caco-2-cells are subjected to a one hour incubation in serum-free medium at standard cell culture conditions of a hunger phase. Subsequently, the test substances were added at 1 or 100 μM, diluted in Hank's balanced salt solution (HBSS of Lonza, Biozym-order number 882010)-buffer, treated with 20 mM HEPES (diluted from a 1M solution of Gibco, Thermo Fisher-order number 15630056) (in the following described as HBSS/HEPES-buffer). Controls were only treated with HBSS/HEPES-buffer. After a 30 minute preincubation at 37° C., the fluorescent fatty acid analogue was added, which was diluted in HBSS/HEPES-buffer (supplemented with 0.2% fatty acid free BSA [Sigma Aldrich, Germany]). The fluorescence signals were measured after excitation with 485 nm at an emission wavelength of 515 nm during a time of 1 h in a microtiter plate-reader (Synergy; BioTek, Germany). Starting from a time-signal-intensity curve resulting from the measurement, the area under the curve (AUC) was calculated to determine the cellular fatty acid resorption after treatment with the substances. The results obtained thereby are indicated as percent related to the control treatment (s. table 1).
Table 1: Results of the measurement of the inhibition of the fatty acid resorption in Caco-2-cells. The calculated area under the curve (AUC) is shown for tests at each 1 and 100 μM substance used (as percent of the vehicle treated control).
With the test for measurement shown in example 2, in total 25 compounds of formula (I) (as described herein) were measured for their inhibitory activity regarding the fatty acid resorption in Caco-2-cells for each two concentrations (1 and 100 μM) in triple determination. The obtained activity data was subsequently used for a structure-effect-analysis by using the software-package StarDrop (Optibrium Ltd) and Vortex (Dotmatics Ltd.). Thereby, an R-group analysis with the basic structure according to formula (II) was performed.

As to `COc1cc(CC(=O)OC(C)C)ccc1O` [Compound 7, Isopropyl-2-(4-hydroxy-3-methoxy-phenyl)acetate], the activity at 1 µM stood at 91.6% and the activity at 100 µM was 61.6%.
The like results for `CCC(CC)COC(=O)Cc1ccc(O)c(OC)c1` [Compound 23, 2-Ethylbutyl-2-(4-hydroxy-3-methoxy-phenyl)acetate] were, in that order, 99.7% and 62.1%.
The corresponding values for `COc1cc(CC(=O)OCCC(C)C)ccc1O` [Compound 10, Isopentyl-2-(4-hydroxy-3-methoxy-phenyl)acetate] are 99.8% and 82.7%.
With `CCCCCC(C)OC(=O)Cc1ccc(O)c(OC)c1` (stereo not drawn) [Compound 14, 1-Methyl hexyl-2-(4-hydroxy-3-methoxy-phenyl)acetate], the activity at 1 µM was 93.4% and the activity at 100 µM stood at 67.5%.
The like results for `CCC(C)OC(=O)Cc1ccc(O)c(OC)c1` (stereo not drawn) [Compound 8, sec-Butyl-2-(4-hydroxy-3-methoxy-phenyl)acetate] were, in that order, 92% and 61.9%.
The like results for `CCCC(CC)OC(=O)Cc1ccc(O)c(OC)c1` (stereo not drawn) [Compound 3, 1-Ethylbutyl-2-(4-hydroxy-3-methoxy-phenyl)acetate] were, in that order, 87.1% and 62.5%.
The like results for `CCCCC(C)OC(=O)Cc1ccc(O)c(OC)c1` (stereo not drawn) [Compound 12, 1-Methylpentyl-2-(4-hydroxy-3-methoxy-phenyl)acetate] were, in that order, 89.5% and 53.3%.
With `COc1cc(CC(=O)OCCc2ccccc2)ccc1O` [Compound 1, 2-Phenylethyl-2-(4-hydroxy-3-methoxy-phenyl)acetate], the activity at 1 µM was found to be 103% and the activity at 100 µM turned out to be 103%.
For the compound `COc1cc(CC(=O)OCC(C)C)ccc1O` [Compound 9, Isobutyl-2-(4-hydroxy-3-methoxy-phenyl)acetate], the activity at 1 µM came to 100% and the activity at 100 µM turned out to be 68%.
With `CCCCCCCOC(=O)Cc1ccc(O)c(OC)c1` [Compound 13, Heptyl-2-(4-hydroxy-3-methoxy-phenyl)acetate], the activity at 1 µM came out at 103% and the activity at 100 µM is 92.7%.
The like results for `CCC/C=C/COC(=O)Cc1ccc(O)c(OC)c1` [Compound 5, [(E)-Hex-2-enyl]-2-(4-hydroxy-3-methoxy-phenyl)acetate] were, in that order, 101% and 96.5%.
The like results for `CCCCCCOC(=O)Cc1ccc(O)c(OC)c1` [Compound 20, Hexyl-2-(4-hydroxy-3-methoxy-phenyl)acetate] were, in that order, 102% and 91.4%.
The corresponding values for `CCOC(=O)Cc1ccc(O)c(OC)c1` [Compound 16, Ethyl-2-(4-hydroxy-3-methoxy-phenyl)acetate] are 105% and 93.8%.
With `CCCOC(=O)Cc1ccc(O)c(OC)c1` [Compound 17, Propyl-2-(4-hydroxy-3-methoxy-phenyl)acetate], the activity at 1 µM was determined as 101% and the activity at 100 µM was found to be 89.7%.
The corresponding values for `CCCCCOC(=O)Cc1ccc(O)c(OC)c1` [Compound 19, Pentyl-2-(4-hydroxy-3-methoxy-phenyl)acetate] are 101% and 92.9%.
The corresponding values for `CC/C=C\CCOC(=O)Cc1ccc(O)c(OC)c1` [Compound 6, [(Z)-Hex-3-enyl]-2-(4-hydroxy-3-methoxy-phenyl)acetate] are 99.9% and 90.4%.
`COc1cc(CC(=O)OC/C=C/c2ccccc2)ccc1O` [Compound 2, [(E)-Cinnamyl]-2-(4-hydroxy-3-methoxy-phenyl)acetate]: the activity at 1 µM was 97.6% and the activity at 100 µM was determined as 94.6%.
Turning to `CCC(C)COC(=O)Cc1ccc(O)c(OC)c1` (stereo not drawn) [Compound 11, 2-Methylbutyl-2-(4-hydroxy-3-methoxy-phenyl)acetate], the activity at 1 µM is 99% and the activity at 100 µM was 79%.
Consider `COc1cc(CC(=O)OCC=C(C)C)ccc1O` [Compound 4, 3-Methylbut-2-enyl-2-(4-hydroxy-3-methoxy-phenyl)acetate], for which the activity at 1 µM was 101% and the activity at 100 µM amounted to 80.9%.
The like results for `CCCCOC(=O)Cc1ccc(O)c(OC)c1` [Compound 18, Butyl-2-(4-hydroxy-3-methoxy-phenyl)acetate] were, in that order, 102% and 90.7%.
The like results for `COc1cc(CC(=O)O[C@@H]2C[C@H](C)CC[C@H]2C(C)C)ccc1O` [Compound 15, (2-Isopropyl-5-methyl-cyclohexyl)-2-(4-hydroxy-3-methoxy-phenyl)acetate] were, in that order, 95.5% and 58.1%.
